Assay results from patent US20020012721A1, “Cooked cereal ingredient-containing products fortified with non-ferric edta and insoluble iron compositions and methods for use” (priority 1998, published 2002).

Columns and labels:
[1] = Iron absorption from fortified corn flakes with milk in women, from radioactivity in circulating erythrocytes; format: in vivo; settings: 30 g corn flakes with 150 ml milk, percent iron absorbed normalized by reference dose of ferrous ascorbate
Method: An experiment was conducted to validate the effectiveness of combining reduced iron with a non-ferric EDTA salt. Six sources of iron were compared in a study conducted on women.
The study was performed using a serving of corn flakes, approximately 30 g, with the addition of 150 ml lactose free UHT-treated 2% fat cow's milk. The percentage of iron absorbed by the test subjects was determined from radioactivity present in the circulating erythrocytes. Labeled ^59FeCl3 was used as a tracer in the reference dose of ferrous ascorbate and in the treatments containing FeSO4. Labeled ^55FeCl3 was used as a tracer in the treatments containing elemental reduced iron. The percentage of iron absorbed by the test subjects was normalized by the reference dose of ferrous ascorbate.

[2] = Rat hemoglobin repletion method: iron bioavailability of iron phosphate alone or with Na2EDTA versus FeSO4 in rat diet/Corn Flakes; format: in vivo, Sprague Dawley rats; settings: rats; for Percent Absorption Relative to FeSO4: calculated from the slopes; for Slope: hemoglobin gain versus diet iron concentration, common intercept, letters mark estimates that do not differ (P < .10)
Method: An additional study was performed to determine the bioavailability of iron phosphate when combined with Na2EDTA. The relative iron bioavailability of the various iron containing compositions in a ready-to-eat cereal product was assayed using a widely accepted method, commonly referred to as the rat hemoglobin repletion method, (modified AOAC method for assessment of relative iron bioavailability), see Williams, S. ed. Official methods of analysis of the Association of Official Analytical Chemists, 14th ed. Arlington, Va. AOAC, 1984; Fritz, J. C. et al., Collaborative Study of rat hemoglobin repletion test for bioavailability of iron, AOAC 1974, 57:513-517. Relative bioavailability of the various iron:EDTA composition was carried out in a series of separate experiments. In each of these experiments, ferrous sulfate was used as the standard or control compound.
Sprague Dawley rats, individually housed in temperature and light controlled units, were fed an iron deficient diet obtained from Harland Tekland Laboratories for 24 days. After this iron depletion phase, the rats were weighed and blood was drawn to test for baseline hemoglobin concentrations. These anemic animals, with hemoglobin levels between […], were then randomly assigned to the control and test groups. Ferrous sulfate, iron phosphate, and iron phosphate with Na2EDTA were separately added to the test diets to achieve concentrations of 6 and 18 and 24 mg iron/kg diet. These diets were then fed to groups of ten animals, ad libitum, for 14 days. Iron levels in the diets, were verified by atomic absorption spectrometry (Blin et al., J. Assoc. Off. Anal. Chem. 1977, 60:1170-1174). After the 14-day test period, hemoglobin concentrations were determined for all animals.
The iron bioavailability of each iron source, assayed relative to ferrous sulfate, was calculated using the slope ratio procedure by comparing the gain in hemoglobin concentration with the iron concentration in the diet (Finney, D. J., Statistical methods in biological assay.2nd ed. 1964; Amine et L., Biological assessment of available iron in food products, J. Agric. Food Chem. 1974, 22:470-476). […] The percent absorption relative to FeSO4 was calculated from the slopes determined from each experiment.
An additional test was conducted feeding rats a purified rat diet/Corn Flakes® fortified with iron phosphate either alone or in combination with Na2EDTA or mixtures of both. […] As described above the bioavailability was determined by assaying the relative change in hemoglobin in rats fed with the various fortified diets with the recommended daily allowance for humans of iron content (RDA).
Three test diets were evaluated: […]

SMILES | Normalized Absorption ([1]; 50% Daily Value iron) | Normalized Absorption ([1]; 25% Daily Value iron) | Percent Absorption Relative to FeSO4 [2] | Slope [2]
O=S(=O)([O-])[O-].[Fe+2] [(b) FeSO4, FeSO4] | 6.9% |  |  | 
O=S(=O)([O-])[O-].[Fe+2] [(a) FeSO4, FeSO4] |  | 11.4% | 100% | 0.30 (c)
O=P([O-])([O-])[O-].[Fe+3] [B) FePO4, FePO4] |  |  | 33% | 0.10 (a)
